Experimental findings from patent US7034056B2, “Aryl and biaryl compounds having MCH modulatory activity” (Pharmacopeia Drug Discovery, inc., priority 2001, dated 2006) are described below.

For one test, the target named is T1, hMCHR (MCH receptor) (Homo sapiens, UniProt Q99705).
T1 construct: (or internally produced); host or cells: CHO (Chinese hamster ovary) cells, membrane preparation
T1 sequence (Q99705 whole entry): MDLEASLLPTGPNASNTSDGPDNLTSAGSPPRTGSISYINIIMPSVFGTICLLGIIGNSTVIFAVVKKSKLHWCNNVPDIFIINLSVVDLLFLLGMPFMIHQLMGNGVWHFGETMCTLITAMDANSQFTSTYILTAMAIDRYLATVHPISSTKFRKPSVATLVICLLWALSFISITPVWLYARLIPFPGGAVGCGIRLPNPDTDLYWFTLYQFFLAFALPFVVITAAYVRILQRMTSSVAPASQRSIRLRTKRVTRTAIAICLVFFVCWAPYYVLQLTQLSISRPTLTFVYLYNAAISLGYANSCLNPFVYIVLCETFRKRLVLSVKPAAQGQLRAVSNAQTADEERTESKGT
As to the kind of experiment: MCH Assay PCOP Protocol ([125I]-MCH SPA binding to hMCHR-CHO membranes).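 On Activity (Ki range): A 0.4–50 nM B 51–500 nM C 501–2500 nM.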 The note with it: [125I]-MCH 0.5 nM, hMCHR-CHO membranes; read-out: Activity (ranges of Ki values). The gist of the method:
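SPA binding with 10 μg hMCHR-CHO membranes and WGA-SPA beads in 25 mM HEPES pH 7.4, 10 mM NaCl, 10 mM MgCl2, 5 mM MnCl2, 0.1% BSA.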
A word on the Ki: it is a measure of affinity in units of concentration, obtained from inhibition or displacement. On to `C[N+](C)([O-])CCC(CNC(=O)Nc1cc(Cl)cc(Cl)c1)c1ccc(-c2cc[n+]([O-])cc2)cc1` (centres unmarked) [Example 41], for which the Ki lay within 0.501 to 2.5 µM.

`CCOC(=O)N1CCC(NCCC(CNC(=O)Nc2cccc(C(F)(F)F)c2)c2ccc(C)cc2)CC1` (centres unmarked) [Example 137]: the inhibitory constant (Ki) was in the range of 0.051 to 0.5 µM.

Take `Cc1ccc(C(CCNC2CCCC2)CN2CCN(c3cc(Cl)cc(Cl)c3)C2=O)cc1` (centres unmarked) [Example 160]: the Ki is 0.051 to 0.5 µM.

As to `CN(C)CCC(CN1CCN(c2cc(Cl)cc(Cl)c2)C1=O)c1ccc(-c2cccc(C#N)c2)cc1` (centres unmarked) [Example 32, 4′-{1-[3-(3,5-Dichlorophemyl)-2-oxoimidazolidin-1-ylmethyl]-3-dimethylaminopropyl}-biphenyl-3-carbonitrile], the inhibitory constant (Ki) fell in the range of 0.501 to 2.5 µM.

As for `O=C(NCC(CCNC1CCCC1)c1ccc(Cl)c(Cl)c1)Nc1cccc(Br)c1` (centres unmarked) [Example 133], the Ki lay in the range of 0.051 to 0.5 µM.

Take `CN(C)CCCNCCC(C)(CNC(=O)Nc1ccc(Cl)c([N+](=O)[O-])c1)c1ccc(Cl)c(Cl)c1` (centres unmarked) [Example 115]: the inhibitory constant (Ki) is 0.501 to 2.5 µM.

Turning to `COc1cc(CNCCC(CNC(=O)Nc2cccc(C(F)(F)F)c2)c2ccc(Cl)c(Cl)c2)cc(OC)c1OC` (centres unmarked) [Example 132], the Ki is 0.051 to 0.5 µM.

For the compound `O=C(NCC(CCNCCc1ccc(O)cc1)c1ccc(Cl)c(Cl)c1)Nc1ccc(F)c([N+](=O)[O-])c1` (centres unmarked) [Example 138], the inhibitory constant (Ki) fell in the range of 0.051 to 0.5 µM.

In the case of `CN(C)CCCNCCC(CNC(=O)Nc1cc(Cl)cc(Cl)c1)c1cccc(-c2cccnc2)c1` (centres unmarked) [Example 172], the inhibition constant (Ki) was 0.501 to 2.5 µM.

With `CN(C)CCCNCCC(CNC(=O)Nc1cc(Cl)cc(Cl)c1)c1cccc(-c2ccc(F)cc2)c1` (centres unmarked) [Example 165], the inhibition constant Ki fell in the range of 0.501 to 2.5 µM.

Staying with this test, now noted: [125I]-MCH SPA binding, hMCHR-CHO membranes; Ki class ranges; read-out: Activity (range of Ki).
For the compound `O=C(NCC(CCN1CCCCC1)c1ccc(Cl)c(Cl)c1)c1cccc(Cl)c1` (centres unmarked) [Example 447], the inhibitory constant (Ki) was 0.501 to 2.5 µM.

On to `COc1ccc2[nH]cc(CCNCCC(CNC(=O)Nc3cc(C(F)(F)F)cc(C(F)(F)F)c3)c3ccc(Cl)c(Cl)c3)c2c1` (centres unmarked) [Example 434], for which the inhibitory constant (Ki) is 0.501 to 2.5 µM.

Still in this test, the particulars now being: [125I]-MCH binding to hMCHR-CHO membranes; class symbols for ranges of Ki; read-out: Activity (Ki range).
Turning to `CN(C)CCCNCCC(CNC(=O)Nc1cc(Cl)cc(Cl)c1)c1ccc(-c2cccc([N+](=O)[O-])c2)cc1` (centres unmarked) [Example 220], the Ki lay in the range of 0.0004 to 0.05 µM.

As to `CCNC(=O)NC1CCN(CCC(CNC(=O)Nc2cc(Cl)cc(Cl)c2)c2ccc(Cl)c(Cl)c2)C1` (centres unmarked) [Example 316], the Ki fell in the range of 0.501 to 2.5 µM.

As to `CCCN(CC)CCC(CNC(=O)c1cc(C(F)(F)F)cc(C(F)(F)F)c1)c1ccc(Cl)c(Cl)c1` (centres unmarked) [Example 395], the inhibition constant Ki is 0.501 to 2.5 µM.

In the case of `O=C(NCC(CCNC1CCNC1)c1ccc(Cl)c(Cl)c1)Nc1cc(C(F)(F)F)cc(C(F)(F)F)c1` (centres unmarked) [Example 318], the inhibitory constant (Ki) lay in the range of 0.501 to 2.5 µM.

`CN(C)CCCNCCC(CNC(=O)Nc1cc(C(F)(F)F)cc(C(F)(F)F)c1)c1cccc(F)c1` (centres unmarked) [Example 346]: the Ki was 0.501 to 2.5 µM.

Turning to `CN(C)CCCNCCC(CNC(=O)Nc1cc(Cl)cc(Cl)c1)c1ccc(-c2ccccc2Cl)cc1` (centres unmarked) [Example 232], the Ki lay in the range of 0.051 to 0.5 µM.

On to `O=C(NCC(CCNC1CCCC1)c1ccc(-c2ccc3c(c2)OCO3)cc1)Nc1cc(Cl)cc(Cl)c1` (centres unmarked) [Example 227], for which the inhibitory constant (Ki) is 0.051 to 0.5 µM.

On to `CN1CCCC1CCNCCC(CNC(=O)Nc1cc(Cl)cc(Cl)c1)c1ccc(Cl)c(Cl)c1` (centres unmarked) [Example 301], for which the inhibitory constant (Ki) lay in the range of 0.501 to 2.5 µM.

Consider `O=C(NCC(CCN1CCC(N2CCCCC2)CC1)c1ccc(Cl)c(Cl)c1)Nc1ccc(Br)cc1Br` (centres unmarked) [Example 359], for which the Ki fell in the range of 0.501 to 2.5 µM.

Consider `CN(C)CCCNCCC(CNC(=O)Nc1cc(Cl)cc(Cl)c1)c1ccc(-c2ccc(Cl)cc2)cc1` (centres unmarked) [Example 246], for which the Ki is 0.051 to 0.5 µM.

`Cc1ccc(C(CCNc2c(C)noc2C)CNC(=O)Nc2cc(Cl)cc(Cl)c2)cc1` (centres unmarked) [Example 275]: the inhibition constant Ki was in the range of 0.501 to 2.5 µM.

On to `O=C(NCC(CCN1CCC(N2CCCCC2)CC1)c1ccc(F)c(F)c1)Nc1ccc(F)c(Cl)c1` (centres unmarked) [Example 378], for which the Ki was in the range of 0.501 to 2.5 µM.

Regarding `O=C(NCC(CCN1CCC(N2CCCCC2)CC1)c1ccc(Cl)c(Cl)c1)Nc1ccc(Br)cc1` (centres unmarked) [Example 326], the Ki was in the range of 0.501 to 2.5 µM.

`O=C(NCC(CCNC1CCCC1)c1ccc(-c2cccs2)cc1)Nc1cc(Cl)cc(Cl)c1` (centres unmarked) [Example 230]: the inhibitory constant (Ki) lay within 0.051 to 0.5 µM.
